Experimental data from patent publication US8921410B2, “Nicotinic acetylcholine receptor sub-type selective amides of diazabicycloalkanes” (Targacept, Inc., priority 2006, dated 2014).
Where two headings read alike, the source gives them in different places.

Columns and labels:
[1] = target: rat α4β2 nAChR subtype (Rattus norvegicus (Rat), UniProt P09483+P12390); test: Radioligand ([3H]nicotine) binding at α4β2 nAChR, rat cortex membranes
Description: Preparation of Membranes from Rat Cortex:
(§1) Rats (female, Sprague-Dawley), weighing 150-250 g, were maintained on a 12 h light/dark cycle and were allowed free access to water and food supplied by PMI Nutrition International, Inc. Animals were anesthetized with 70% CO2, and then decapitated. Brains were removed and placed on an ice-cold platform. […] The homogenate was centrifuged at 18,000×g for 20 min at 4° C. and the resulting pellet was re-suspended in 20 volumes of ice-cold water. After 60 min incubation on ice, a new pellet was collected by centrifugation at 18,000×g for 20 min at 4° C. The final pellet was re-suspended in 10 volumes of buffer and stored at −20° C.
(§2) On the day of the assay, the frozen membranes were thawed and spun at 48,000×g for 20 min. The supernatant was decanted and discarded. The pellet was resuspended in Dulbecco's phosphate buffered saline (PBS, Life Technologies) pH 7.4 and homogenized with the Polytron for 6 seconds. Protein concentrations were determined using a Pierce BCA Protein Assay Kit, with bovine serum albumin as the standard (Pierce Chemical Company, Rockford, Ill.).
(§3) Tissue was rinsed 3 times in PBS, pH 7.4. Scintillation fluid was added to filters containing the washed tissue and allowed to equilibrate.
(§4) Data were expressed as disintegrations per minute (DPMs). Within each assay, each point had 2-3 replicates. The replicates for each point were averaged and plotted against the log of the drug concentration.

[2] = target: human α4β2 nAChR subtype (Homo sapiens (Human), UniProt P17787+P43681); test: Radioligand ([3H]nicotine) binding at α4β2 nAChR, SH-EP1/human α4β2 clonal cell membranes; conditions: [3H]nicotine 5 nM, SH-EP1/human α4β2 membranes; read-out: Human α4β2 Ki
human α4β2 nAChR subtype, sequence (P43681 29-627): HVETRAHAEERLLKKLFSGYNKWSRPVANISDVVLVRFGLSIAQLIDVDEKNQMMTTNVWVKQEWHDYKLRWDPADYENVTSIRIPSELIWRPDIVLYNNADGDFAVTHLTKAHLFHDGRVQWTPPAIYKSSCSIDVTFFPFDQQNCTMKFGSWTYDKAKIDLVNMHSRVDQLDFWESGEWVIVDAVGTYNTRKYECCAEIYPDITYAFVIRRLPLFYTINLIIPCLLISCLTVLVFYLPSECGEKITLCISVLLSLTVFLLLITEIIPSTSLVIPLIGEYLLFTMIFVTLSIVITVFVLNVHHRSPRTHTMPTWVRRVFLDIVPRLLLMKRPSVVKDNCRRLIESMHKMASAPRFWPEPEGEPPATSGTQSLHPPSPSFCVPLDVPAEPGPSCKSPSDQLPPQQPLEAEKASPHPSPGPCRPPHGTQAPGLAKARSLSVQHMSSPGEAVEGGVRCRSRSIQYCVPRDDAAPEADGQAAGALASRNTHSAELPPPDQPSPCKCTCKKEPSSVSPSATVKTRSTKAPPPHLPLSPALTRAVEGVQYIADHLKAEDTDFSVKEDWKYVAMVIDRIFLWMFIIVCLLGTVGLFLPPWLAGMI
human α4β2 nAChR subtype, sequence (P17787 26-502): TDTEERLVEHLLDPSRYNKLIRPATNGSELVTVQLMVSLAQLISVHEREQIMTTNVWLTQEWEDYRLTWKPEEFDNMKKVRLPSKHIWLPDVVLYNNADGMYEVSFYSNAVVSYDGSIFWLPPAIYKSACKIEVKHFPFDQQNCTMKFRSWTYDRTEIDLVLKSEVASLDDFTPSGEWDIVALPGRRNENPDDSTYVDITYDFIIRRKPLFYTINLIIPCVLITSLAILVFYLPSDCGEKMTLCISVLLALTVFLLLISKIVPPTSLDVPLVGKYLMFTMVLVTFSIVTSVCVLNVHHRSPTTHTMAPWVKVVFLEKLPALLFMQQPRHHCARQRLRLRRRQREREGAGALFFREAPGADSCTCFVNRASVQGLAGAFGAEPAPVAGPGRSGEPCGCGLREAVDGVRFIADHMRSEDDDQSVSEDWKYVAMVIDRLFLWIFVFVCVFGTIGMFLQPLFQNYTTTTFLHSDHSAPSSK
Description: Preparation of Membranes from SH-EP1/Human α4β2 Clonal Cells:
Cell pellets from 40 150 mm culture dishes were pooled, and homogenized by Polytron (Kinematica GmbH, Switzerland) in 20 milliliters of ice-cold preparative buffer. The homogenate was centrifuged at 48,000 g for 20 minutes at 4° C. The resulting pellet was re-suspended in 20 mL of ice-cold preparative buffer and stored at −20° C.
as §2, §3, §4

[3] = target: α7 nAChR subtype (Rattus norvegicus (Rat), UniProt Q05941); test: Radioligand ([3H]MLA) binding at α7 nAChR, rat hippocampus membranes; conditions: for α7 high through-put screening outcome (Ki not determined): did not bind sufficiently in HTS at α7 to warrant Ki determination
α7 nAChR subtype, sequence (Q05941 23-502): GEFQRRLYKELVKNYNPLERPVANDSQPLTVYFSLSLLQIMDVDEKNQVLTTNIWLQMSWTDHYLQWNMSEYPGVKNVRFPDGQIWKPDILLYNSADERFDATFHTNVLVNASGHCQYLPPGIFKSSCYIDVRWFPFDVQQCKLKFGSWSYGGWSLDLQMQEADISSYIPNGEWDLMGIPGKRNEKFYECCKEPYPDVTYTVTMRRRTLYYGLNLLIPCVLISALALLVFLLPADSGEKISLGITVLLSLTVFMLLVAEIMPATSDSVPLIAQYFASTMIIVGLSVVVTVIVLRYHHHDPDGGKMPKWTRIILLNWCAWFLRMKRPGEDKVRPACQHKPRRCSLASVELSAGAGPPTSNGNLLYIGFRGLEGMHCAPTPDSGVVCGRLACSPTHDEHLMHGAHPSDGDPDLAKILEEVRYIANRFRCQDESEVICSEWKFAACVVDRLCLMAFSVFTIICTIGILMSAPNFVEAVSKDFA
Description: as §1, with “CO2,” for “CO2, and”, “in 10” for “in 20”
The binding of [^3H]MLA was measured using a modification of the methods of Davies et al., Neuropharmacol. […] [^3H]MLA (Specific Activity=25-35 Ci/mmol) was obtained from Tocris. The binding of [^3H]MLA was determined using a 2 h incubation at 21° C. Incubations were conducted in 48-well micro-titre plates and contained about 200 μg of protein per well in a final incubation volume of 300 μL. The incubation buffer was PBS and the final concentration of [^3H]MLA was 5 nM. The binding reaction was terminated by filtration of the protein containing bound ligand onto glass fiber filters (GF/B, Brandel) using a Brandel Tissue Harvester at room temperature. […] Each filter was washed with PBS (3×1 mL) at room temperature. Non-specific binding was determined by inclusion of 50 μM non-radioactive MLA in selected wells.
The inhibition of [^3H]MLA binding by test compounds was determined by including seven different concentrations of the test compound in selected wells. Each concentration was replicated in triplicate. IC50 values were estimated as the concentration of compound that inhibited 50 percent of specific [^3H]MLA binding.

[4] = [3H]nicotine 5 nM, rat cortex membranes
[5] = [3H]MLA 5 nM, rat hippocampus membranes

rat α4β2 nAChR subtype, sequence (P09483 31-630): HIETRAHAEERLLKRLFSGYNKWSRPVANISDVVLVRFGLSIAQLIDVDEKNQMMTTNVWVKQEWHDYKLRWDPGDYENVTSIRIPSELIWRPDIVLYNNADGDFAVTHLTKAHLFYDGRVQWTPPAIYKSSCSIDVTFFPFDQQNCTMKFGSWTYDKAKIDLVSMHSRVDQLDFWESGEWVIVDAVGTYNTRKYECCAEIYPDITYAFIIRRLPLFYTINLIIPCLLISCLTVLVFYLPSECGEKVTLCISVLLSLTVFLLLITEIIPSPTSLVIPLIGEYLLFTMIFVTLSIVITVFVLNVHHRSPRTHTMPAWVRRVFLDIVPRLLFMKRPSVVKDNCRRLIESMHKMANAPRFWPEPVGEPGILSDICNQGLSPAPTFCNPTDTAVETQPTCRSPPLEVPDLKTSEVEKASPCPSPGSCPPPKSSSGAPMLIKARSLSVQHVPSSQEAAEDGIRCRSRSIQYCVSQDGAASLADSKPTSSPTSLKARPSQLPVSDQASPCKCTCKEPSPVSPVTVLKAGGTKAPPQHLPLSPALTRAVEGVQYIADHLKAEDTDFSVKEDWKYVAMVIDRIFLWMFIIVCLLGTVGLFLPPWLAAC
rat α4β2 nAChR subtype, sequence (P12390 25-500): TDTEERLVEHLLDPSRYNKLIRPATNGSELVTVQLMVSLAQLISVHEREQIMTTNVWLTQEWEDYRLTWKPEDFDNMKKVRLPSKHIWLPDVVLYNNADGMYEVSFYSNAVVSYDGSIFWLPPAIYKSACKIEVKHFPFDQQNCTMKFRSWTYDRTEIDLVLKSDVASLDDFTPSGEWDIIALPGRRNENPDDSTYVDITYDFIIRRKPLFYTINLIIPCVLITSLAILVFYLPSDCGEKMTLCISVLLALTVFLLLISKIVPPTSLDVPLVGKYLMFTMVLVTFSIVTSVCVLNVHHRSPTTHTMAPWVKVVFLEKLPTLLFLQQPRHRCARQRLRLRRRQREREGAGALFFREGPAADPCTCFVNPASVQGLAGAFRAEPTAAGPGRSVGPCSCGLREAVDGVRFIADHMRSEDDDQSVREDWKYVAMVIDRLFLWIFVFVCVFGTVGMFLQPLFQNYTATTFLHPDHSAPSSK

`O=C(c1ccncc1)N1CC2CNCC2C1` (stereo not drawn) was tested. Which Ki [1, 4] did it give?
The Ki was 26 nM.

And the Ki [2]?
The Ki was 160 nM.

And the “α7 high through-put screening outcome (Ki not determined)” value [3]?
The value was “ND; failed HTS”.

For `O=C(c1ccc(Br)o1)N1CC2CNCC2C1` (stereo not drawn), which Ki [1, 4] is on record?
The Ki was 54 nM.

And the Ki [2]?
Its Ki is 73 nM.

And the Ki [3]?
The Ki was 12000 nM.

`O=C(c1ccoc1)N1CC2CNCC2C1` (stereo not drawn) was tested. Which Ki [1] did it give?
Its Ki is 53 nM.

What about the Ki [2] of the same compound?
The Ki was 220 nM.

What about the Ki [3, 5] of the same compound?
Its Ki is 3100 nM.

Which Ki [1, 4] does the source give for `O=C(c1ccc([N+](=O)[O-])o1)N1CC2CNCC2C1` (stereo not drawn) here?
The Ki was 35 nM.

What about the Ki [2] of the same compound?
The Ki was 31 nM.

What about the Ki [3, 5] of the same compound?
The Ki was 2900 nM.

For `COc1cc(C(=O)N2CC3CNCC3C2)on1` (stereo not drawn), which Ki [1, 4] is on record?
The Ki was 19 nM.

And the Ki [2]?
The Ki was 19 nM.

And the Ki [3, 5]?
Its Ki is 3500 nM.

How did the Ki [1] turn out when `O=C(c1occc1Br)N1CC2CNCC2C1` (stereo not drawn) was run?
Its Ki is 1.5 nM.

And the Ki [2]?
The Ki was 1.5 nM.

And the Ki [3, 5]?
Its Ki is 12000 nM.

For `Cc1ccoc1C(=O)N1CC2CNCC2C1` (stereo not drawn), which Ki [1, 4] is on record?
The Ki was 44 nM.

And the Ki [2]?
The Ki was 54 nM.

What about the Ki [3, 5] of the same compound?
Its Ki is 25000 nM.

For `O=C(c1ccc(C#Cc2ccccc2)o1)N1CC2CNCC2C1` (stereo not drawn), which Ki [1, 4] is on record?
Its Ki is 230 nM.

And the Ki [2]?
Its Ki is 43 nM.

What about the Ki [3, 5] of the same compound?
The Ki was 3200 nM.

`Cc1ccc(C(=O)N2CC3CNCC3C2)o1` (stereo not drawn) was tested. Which Ki [1] did it give?
The Ki was 130 nM.

What about the Ki [2] of the same compound?
The Ki was 28 nM.

What about the Ki [3] of the same compound?
Its Ki is 23000 nM.

Which Ki [1, 4] does the source give for `O=C(c1cc(Br)no1)N1CC2CNCC2C1` (stereo not drawn) here?
The Ki was 17 nM.

And the Ki [2]?
The Ki was 44 nM.

And the “α7 high through-put screening outcome (Ki not determined)” value [3]?
Its value is “ND; failed HTS”.

`O=C(c1cc(Br)co1)N1CC2CNCC2C1` (stereo not drawn) was tested. Which Ki [1, 4] did it give?
Its Ki is 29 nM.

And the Ki [2]?
The Ki was 18 nM.

And the “α7 high through-put screening outcome (Ki not determined)” value [3]?
The value was “ND; failed HTS”.

With `COc1coc(C(=O)N2CC3CNCC3C2)c1OC` (stereo not drawn) as the compound, how does the Ki [1, 4] read?
Its Ki is 140 nM.

What about the Ki [2] of the same compound?
The Ki was 40 nM.

What about the “α7 high through-put screening outcome (Ki not determined)” value [3] of the same compound?
The value was “ND; failed HTS”.

Which Ki [1, 4] does the source give for `O=C(c1cc(-c2cc(F)cc(F)c2)co1)N1CC2CNCC2C1` (stereo not drawn) here?
The Ki was 54 nM.

What about the Ki [2] of the same compound?
Its Ki is 24 nM.

What about the “α7 high through-put screening outcome (Ki not determined)” value [3] of the same compound?
Its value is “ND; failed HTS”.

`O=C(c1cc(-c2ccccc2)co1)N1CC2CNCC2C1` (stereo not drawn) was tested. Which Ki [1, 4] did it give?
The Ki was 260 nM.

And the Ki [2]?
The Ki was 86 nM.

What about the Ki [3, 5] of the same compound?
Its Ki is 12000 nM.

`O=C(c1cc(-c2ccoc2)co1)N1CC2CNCC2C1` (stereo not drawn) was tested. Which Ki [1, 4] did it give?
The Ki was 110 nM.

And the Ki [2]?
The Ki was 95 nM.

What about the “α7 high through-put screening outcome (Ki not determined)” value [3] of the same compound?
Its value is “ND; failed HTS”.

`Cc1cc(C(=O)N2CC3CNCC3C2)no1` (stereo not drawn) was tested. Which Ki [1, 4] did it give?
Its Ki is 150 nM.

And the Ki [2]?
The Ki was 84 nM.

And the “α7 high through-put screening outcome (Ki not determined)” value [3]?
Its value is “ND; failed HTS”.

`Cc1ncoc1C(=O)N1CC2CNCC2C1` (stereo not drawn) was tested. Which Ki [1, 4] did it give?
Its Ki is 15 nM.

What about the Ki [2] of the same compound?
Its Ki is 9.2 nM.

What about the Ki [3, 5] of the same compound?
Its Ki is 210000 nM.

`Cc1nocc1C(=O)N1CC2CNCC2C1` (stereo not drawn) was tested. Which Ki [1, 4] did it give?
Its Ki is 24 nM.

What about the Ki [2] of the same compound?
Its Ki is 14 nM.

What about the Ki [3, 5] of the same compound?
Its Ki is 56000 nM.

`Cc1cc(C(=O)N2CC3CNCC3C2)on1` (stereo not drawn) was tested. Which Ki [1, 4] did it give?
Its Ki is 32 nM.

And the Ki [2]?
The Ki was 31 nM.

What about the “α7 high through-put screening outcome (Ki not determined)” value [3] of the same compound?
The value was “ND; failed HTS”.

Which results are given for `Cc1occc1C(=O)N1CC2CNCC2C1` (stereo not drawn)?
Ki [1, 4]: 61 nM; Ki [2]: 29 nM; Ki [3, 5]: 160000 nM

How did the Ki [1, 4] turn out when `O=CNc1ccc(C(=O)N2CC3CNCC3C2)o1` (stereo not drawn) was run?
The Ki was 53 nM.

And the Ki [2]?
The Ki was 63 nM.

What about the “α7 high through-put screening outcome (Ki not determined)” value [3] of the same compound?
The value was “ND; failed HTS”.

`COc1ccoc1C(=O)N1CC2CNCC2C1` (stereo not drawn) was tested. Which Ki [1, 4] did it give?
The Ki was 353 nM.

What about the Ki [2] of the same compound?
The Ki was 100 nM.

What about the “α7 high through-put screening outcome (Ki not determined)” value [3] of the same compound?
Its value is “ND; failed HTS”.

`Cc1cc(C(F)(F)F)c(C(=O)N2CC3CNCC3C2)o1` (stereo not drawn) was tested. Which Ki [1, 4] did it give?
The Ki was 1000 nM.

What about the Ki [2] of the same compound?
The Ki was 45 nM.

And the “α7 high through-put screening outcome (Ki not determined)” value [3]?
The value was “ND; failed HTS”.

Which results are given for `O=C(c1cc(C(F)(F)F)co1)N1CC2CNCC2C1` (stereo not drawn)?
Ki [1, 4]: 320 nM; Ki [2]: 36 nM; α7 high through-put screening outcome (Ki not determined) [3]: ND; failed HTS

What does the source list for `Cc1oc(C(=O)N2CC3CNCC3C2)cc1Br` (stereo not drawn)?
Ki [1]: 20 nM; Ki [2]: 22 nM; α7 high through-put screening outcome (Ki not determined) [3]: ND; failed HTS

For `C=Cc1ccoc1C(=O)N1CC2CNCC2C1` (stereo not drawn), which Ki [1, 4] is on record?
The Ki was 140 nM.

And the Ki [2]?
Its Ki is 51 nM.

And the “α7 high through-put screening outcome (Ki not determined)” value [3]?
Its value is “ND; failed HTS”.
